Results on one compound are retold here after US20080058310A1, “High-density lipoprotein-cholesterol level elevating agent” (Takeda Pharmaceutical Company Limited, priority 2000, published 2008).

The subject of test [1] is WHHL (Watanabe heritable hyperlipidemic) rabbits. Nature of the test: Blood lipid levels in WHHL (LDL receptor-deficient) rabbits fed the compound in feedstuff for 14 days (Test Example 2). Type of test: in vivo, rabbit. The conditions noted are these: Means ± SEM (n = 6). On the procedure: WHHL (Watanabe heritable hyperlipidemic) rabbits (2 to 3 months-old, four male, eight female), LDL receptor-deficient animal were used. The body weight was measured. Blood was then taken from the ear central artery, and the total cholesterol (TC) and triglyceride (TG) in blood plasma were measured using Wako Pure Chemical kit (manufactured by Wako Pure Chemicals, Inc.) and an autoanalyzer (Hitachi 7070). The animals were divided into two groups, each of which consisted of six animals. The subject compound was mixed with a basic feedstuff (RC-4, Oriental Yeast, Co., Ltd) in an amount of 0.2%, and the mixed feedstuff was fed to the animals in an amount of 120 g per a day (corresponds to the amount of 100 mg/kg/day). To the control group was fed basic feedstuff in an amount of 120 g per a day. The blood lipid levels at the starting of administration and after finishing the administration for 14 days are shown in Table 2 and Table 3, respectively.

The next test relates to common marmosets. Nature of the test: Plasma lipid change in common marmosets after four days of oral administration (Test Example 1). Type of test: in vivo, common marmoset. The following applies: male common marmosets, 100 mg/kg/day oral once a day for four days, blood plasma on fifth day, Means ± SEM (N = 5). As to the method:
Male common marmosets (300-500 g) were bred while feeding normal feed (CMS-1, CLEA Japan, Inc.) and water freely. The body weight was measured. Blood was taken from the femoral vein, and the total cholesterol (TC), HDL-cholesterol (HDL-C) and triglyceride (TG) in blood plasma were measured using Wako Pure Chemical kit (manufactured by Wako Pure Chemicals, Inc.) and an autoanalyzer (Hitachi 7070). The animals were devided into groups, each of which consisted of five animals. The subject compound, as a suspension in 0.5% methylcellulose, was forced oral administration to the animals once a day and for four days. On the morning of the fifth day, the body weight was measured. Blood was then taken from the femoral vein, and the total cholesterol, triglyceride and HDL-cholesterol in blood plasma were measured according to the above-mentioned method. The non-HDL-C was calculated by subtracting the HDL-cholesterol from the total cholesterol.

[2] abbreviates: 0.2% in feed (corresponds to 100 mg/kg/day), after 14 days relative to initial.
The mark [3] stands for this setting: 0.2% in feed (corresponds to 100 mg/kg/day), after administration for 14 days.
Setting [4] is: blood plasma at the starting of administration (baseline) of the 0.2% in feed group.

For the compound `COc1cccc([C@H]2O[C@H](CC(=O)N3CCC(CC(=O)O)CC3)C(=O)N(CC(C)(C)COC(C)=O)c3ccc(Cl)cc32)c1OC` [subject compound, N-[[(3R,5S)-1-(3-acetoxy-2,2-dimethylpropyl)-7-chloro-5-(2,3-dimethoxyphenyl)-2-oxo-1,2,3,5-tetrahydro-4,1-benzoxazepin-3-yl]acetyl]piperidine-4-acetic acid], in test [1] (setting [2]), the “TC % of initial” value was determined as 85 ± 2 % and the “TG % of initial” value amounted to 40 ± 3 %. In test [1] (setting [3]), the “TC (mg/dL) end” value is on record as 715 ± 36 mg/dL and the “TG (mg/dL) end” value was 107 ± 10 mg/dL. In addition, in test [1] (setting [4]), the “TC (mg/dL) initial” value was 838 ± 45 mg/dL and the “TG (mg/dL) initial” value was 272 ± 24 mg/dL. Further, in the test with common marmosets, the “HDL-C (%-change)” value was determined as 16.2 ± 10% and the “TG (%-change)” value is −37.6 ± 17%. Also, the “Non-HDL-C (%-change)” value with common marmosets (non-HDL-C = total cholesterol minus HDL-cholesterol) is listed as −40.4 ± 4 %.
